Where two headings read alike, the source gives them in different places.
What was measured:
[1] = system: E. coli K-12 BW25113 bearing the metagenomic plasmid library; assay: Functional metagenomic screen of a soil library, gradient plate selection; assay type: cell-based, Escherichia coli; details: soil metagenomic library, 1.5–5 kb fragments, gradient plate, 30 °C, 24 h
E. coli K-12 BW25113 = assay: microbe, parasite or virus in culture; assay type: cell-based, Escherichia coli
Text: Unless otherwise indicated, Minimal Salt (MS) medium was used in all experiments, including the laboratory evolution experiments. In line with previous, methodologically relevant laboratory evolution studies, the physical conditions (including the medium) were the same during the course of laboratory evolution and all forthcoming assays on the resulting resistant lines (e.g. MIC measurements). We previously optimized this medium for studying AMPs (1 g L^−1 (NH4)2SO4, 3 g L^−1 KH2PO4 and 7 g L^−1 K2HPO4 supplemented with 0.1 mM MgSO4, 0.54 µg mL^−1 FeCl3, 1 µg mL^−1 thiamine hydrochloride, 0.2% Casamino acids and 0.2% glucose)[19]. This medium is highly controlled and provides a reproducible environment for experimental evolution experiments. All components were obtained from Sigma-Aldrich.
(§1) MICs were determined using a standard serial broth dilution technique. Briefly, 11-step serial dilutions were prepared in 96-well microtiter plates with three replicates per strain and antimicrobial compound. Each experiment was repeated at least twice. 5 × 10^5 cells/mL were inoculated into each well, and the plates were incubated at 30 °C in case of E. coli K-12 BW25113, and its antibiotic and AMP-adapted lines, or 37 °C in case of the other bacterial species. […] Cell growth was monitored by measuring the optical density (OD600 value, Biotek Synergy 2 microplate reader was used for this purpose). […] Relative MIC was calculated as follows: MICrelative = MICevolved/MICcontrol.

[2] = system: E. coli K-12 BW25113 carrying single mutations; assay: MIC change in single-mutation strains (basS L194R, mlaD a342del, waaY M1†); assay type: cell-based, Escherichia coli; details: mutations inserted individually into E. coli K-12 BW25113
[3] = system: E. coli K-12 BW25113 carrying ASKA plasmids; assay: microbe, parasite or virus in culture; assay type: cell-based, Escherichia coli; details: for MIC value of E. coli K-12 BW25113 carrying the empty plasmid of the ASKA library / MIC value of E. coli K-12 BW25113 carrying the pooled plasmids of the ASKA library / MIC: MS medium + 10 µg mL−1 CHL + 500 µM IPTG, 5 × 10^5 cells, 16–18 h, 37 °C; for MIC: Escherichia coli
Text: Bacterial gene amplification generates extensive genetic variation that can provide drug resistance[37],[38]. As gene amplification events tend to be genetically unstable and reduce bacterial fitness, they are transient in nature. Using the ASKA library, which comprises each E. coli ORF cloned into an expression vector[40], we have conducted a global survey to evaluate whether artificially amplified genes provide resistance to any of the 14 AMPs and 11 antibiotics tested. As chloramphenicol (CHL) was used as a selection marker for the ASKA plasmid, this antibiotic was not tested in this screen. E. coli K-12 BW25113 cells were transformed with the pooled plasmids of the ASKA library, and the genetically mixed populations were exposed to increasing levels of AMP or antibiotic stresses, respectively. In all cases, the employed AMP or antibiotic dosages were above the MIC of the wild type. For each drug, we identified the MIC provided in the pooled ASKA plasmid library, and compared it to the MIC of the wild-type strain carrying the empty ASKA plasmid.
The ASKA library (a complete set of E. coli K-12 ORF archive) includes every E. coli ORF cloned into an expression vector (pCA24N)[65]. Prior to screening, the ASKA plasmid collection was pooled and transformed into E. coli K-12 BW25113 strain[66]. The plasmid pool was created by pooling an equal aliquot of cells, each carrying different members of the ASKA library, followed by plasmid miniprep. Next, the plasmid pool was electroporated into E. coli K-12 BW25113 competent cells. […] For the MICs measurements 500 000 cells were inoculated in each well which represents ~100 times coverage of each library member. […] Prior to the measurements the cell population containing the pooled overexpression library or the control strain containing the empty vector were grown in three replicates in LB medium supplemented with 20 µg/mL CHL. As the culture reached high density (i.e., OD600 > 0.8), expression of the plasmid was induced by 50 µM IPTG for 1 h. Following induction, 5 × 10^5 bacterial cells were inoculated in three replicates into each well of the 96-well plate and incubated for 16–18 h at 37 °C. Following incubation the MIC values were determined by measuring optical densities in a plate reader (Biotek Synergy).

[4] = system: E. coli ATCC 25922, S. enterica LT2, K. pneumoniae ATCC 10031, A. baumannii ATCC 17978; assay: Laboratory evolution in pathogenic bacteria, statements for all four pathogens together; assay type: cell-based
Text: The tested pathogens initially sensitive to the AMPs and the antibiotics included Escherichia coli (ATCC® 25922™) (abbreviated as E. coli ATCC 25922), Salmonella enterica subsp. enterica serovar Typhimurium LT2 (abbreviated as S. enterica LT2), Klebsiella pneumoniae subsp. pneumoniae (Schroeter) Trevisan (ATCC® 10031™) (abbreviated as K. pneumoniae ATCC 10031) and Acinetobacter baumannii Bouvet and Grimont (ATCC® 17978™) (abbreviated as A. baumannii ATCC 17978).
The evolutionary protocol was designed to avoid population extinction and to ensure that populations with the highest level of resistance were propagated further. Starting with a subinhibitory drug concentration (Supplementary Data 8), resulting in ~50% growth inhibition, 10 parallel populations per drug were allowed to grow in Minimal Salts medium for 72 h and 300 r.p.m. E. coli K-12 BW25113 and E. coli mutD5 populations were incubated at 30 °C, while E. coli ATCC 25922, S. enterica LT2, K. pneumonia ATCC 10031, and A. baumannii ATCC 17978 were incubated at 37 °C. […] Prior to each transfer, cell growth was monitored by measuring the optical density at 600 nm (OD600 value, Biotek Synergy 2 microplate reader). Only populations with the highest drug concentration (and reaching OD600 > 0.2) were selected for further evolution. A chess-board layout was used on the plate to monitor potential cross-contamination events. […] E. coli mutD5 was adapted to TPII, also in 10 parallel evolving populations.
as §1, with “twice.” for “twice. 5 × 10^5 cells/mL were inoculated into each well, and the plates were incubated at 30 °C in case of E. coli K-12 BW25113, and its antibiotic and AMP-adapted lines, or 37 °C in case of the other bacterial species.”

K. pneumoniae ATCC 10031 = assay type: cell-based, Klebsiella pneumoniae; details: starting strain; broth dilution, MS medium, 37 °C, 18 h
Method: (§2) Unless otherwise indicated, we used E. coli K-12 BW25113 in all high-throughput experiments. To investigate the impact of mutation rate on evolution of AMP resistance, we initiated laboratory evolution with a mutator strain E. coli mutD5 that carries mutations in the dnaQ gene (L73W and A164V).
(§3) MICs were determined using a standard serial broth dilution technique. Briefly, 11-step serial dilutions were prepared in 96-well microtiter plates with three replicates per strain and antimicrobial compound. Each experiment was repeated at least twice. 5 × 10^5 cells/mL were inoculated into each well, and the plates were incubated at 30 °C in case of E. coli K-12 BW25113, and its antibiotic and AMP-adapted lines, or 37 °C in case of the other bacterial species. Plates were shaken at 300 r.p.m. during incubation for 24 and 18 h, respectively. Cell growth was monitored by measuring the optical density (OD600 value, Biotek Synergy 2 microplate reader was used for this purpose). […] Relative MIC was calculated as follows: MICrelative = MICevolved/MICcontrol.

A. baumannii ATCC 17978 = assay type: cell-based, Acinetobacter baumannii; details: starting strain; broth dilution, MS medium, 37 °C, 18 h
Method: as §2, §3

E.coli K-12 BW25113 = assay type: cell-based, Escherichia coli; details: for MIC (freshly prepared AMP): plates inoculated immediately; for MIC (pre-incubated AMP): plates pre-incubated 72 hours before inoculation
Method: as §3
Supplementary Table 7- Effect of incubation time on the minimum inhibitory concentration (MIC) of AMPs. We tested whether the prolonged incubation time can affect the MIC of AMPs. To test this, two sets of AMP containing MIC plates were prepared in parallel. The first set was immediately inoculated with E.coli K-12 BW25113, while the second set was pre-incubated 72 hours before inoculation with the […]
observed in the MIC between freshly prepared and pre-incubated plates. […]

E. coli ATCC 25922 = assay type: cell-based, Escherichia coli; details: starting strain; broth dilution, MS medium, 37 °C, 18 h
Method: as §2, §3

S. enterica LT2 = assay type: cell-based, Salmonella enterica subsp. enterica serovar Typhimurium; details: starting strain; broth dilution, MS medium, 37 °C, 18 h
Method: as §2, §3

[5] = Escherichia coli, BW25113, 24 h, read-out: MIC
[6] = starting wild-type strain of the evolution experiment, broth dilution, MS medium, 5 × 10^5 cells/mL, 30 °C, 24 h, MIC = OD600 < 0.05
[7] = BW25113, Replicate 1, read-out: MIC value of E. coli K-12 BW25113 carrying the empty plasmid of the ASKA library
[8] = BW25113, Replicate 1, read-out: MIC value of E. coli K-12 BW25113 carrying the pooled plasmids of the ASKA library
[9] = BW25113, Replicate 2, read-out: MIC value of E. coli K-12 BW25113 carrying the empty plasmid of the ASKA library
[10] = BW25113, Replicate 2, read-out: MIC value of E. coli K-12 BW25113 carrying the pooled plasmids of the ASKA library
[11] = BW25113, Replicate 3, read-out: MIC value of E. coli K-12 BW25113 carrying the empty plasmid of the ASKA library
[12] = BW25113, Replicate 3, read-out: MIC value of E. coli K-12 BW25113 carrying the pooled plasmids of the ASKA library
[13] = time allowed for bacterial growth 24 hours
[14] = time allowed for bacterial growth 48 hours
[15] = time allowed for bacterial growth 72 hours

Row | Compound | Number of resistant contig [1] | MIC (E. coli K-12 BW25113; [5]) [µg/mL] | MIC value of E. coli K-12 BW25113 carrying the empty plasmid of the ASKA library ([3]; Replicate 1) [µg/mL] | MIC value of E. coli K-12 BW25113 carrying the pooled plasmids of the ASKA library ([3]; Replicate 1) [µg/mL] | MIC value of E. coli K-12 BW25113 carrying the empty plasmid of the ASKA library ([3]; Replicate 2) [µg/mL] | MIC value of E. coli K-12 BW25113 carrying the pooled plasmids of the ASKA library ([3]; Replicate 2) [µg/mL] | MIC value of E. coli K-12 BW25113 carrying the empty plasmid of the ASKA library ([3]; Replicate 3) [µg/mL] | MIC value of E. coli K-12 BW25113 carrying the pooled plasmids of the ASKA library ([3]; Replicate 3) [µg/mL] | MIC (E. coli K-12 BW25113; [6]) [µg/mL] | MIC [3, 7] [µg/mL] | MIC [3, 8] [µg/mL] | MIC [3, 9] [µg/mL] | MIC [3, 10] [µg/mL] | MIC [3, 11] [µg/mL] | MIC [3, 12] [µg/mL] | other results
1 | O=C(N[C@H](CO)[C@H](O)c1ccc([N+](=O)[O-])cc1)C(Cl)Cl [CHL, Chloramphenicol] | 7 | 6.9 | – | – | – | – | – | – | – | – | – | – | – | – | – | –
2 | GIINTLQKYYRVRGGRAVLSLPKEEQIGKSTRGRKRRKK [HBD3, Human beta-defensin-3, clinically relevant antimicrobial peptide with human origin] | – | – | 195.36 | 405.09 | 195.36 | 337.58 | 281.31 | 281.31 | 1500 | – | – | – | – | – | – | resistance conferred by single mutations basS L194R, mlaD a342del, waaY M1† (in words) [2]: conferred resistance
3 | NC[C@H]1O[C@H](O[C@H]2[C@H](O)[C@@H](O[C@H]3O[C@H](CO)[C@@H](O)[C@H](N)[C@H]3O)[C@H](N)C[C@@H]2N)[C@H](N)C[C@@H]1O [TOB, Tobramycin] | 13 | 3.4 | – | – | – | – | – | – | – | 1.49 | 2.15 | 1.24 | 2.58 | 1.49 | 2.58 | –
4 | KTKKKFLKKT [PXB, Polymyxin B, AMP used as a last-resort drug in the treatment of multidrug-resistant Gram-negative bacterial infections; from Sigma-Aldrich] | – | – | 3.18 | 3.18 | 3.18 | 3.18 | 3.18 | 3.18 | 2.5 | – | – | – | – | – | – | resistance after laboratory evolution in pathogens (in words) ([4]; all four pathogenic species): a high level of PXB-resistance has emerged in all pathogens studied; increment of resistance level compared to the corresponding wild-type strain ([4]; certain lines, highest value over the four pathogens): ≤ 20,000 times; MIC (K. pneumoniae ATCC 10031): 2 µg/mL; MIC (A. baumannii ATCC 17978): 2 µg/mL; MIC (freshly prepared AMP) (E.coli K-12 BW25113; [13]): 4.2 µg/mL; MIC (freshly prepared AMP) (E.coli K-12 BW25113; [14]): 4.2 µg/mL; MIC (freshly prepared AMP) (E.coli K-12 BW25113; [15]): 4.2 µg/mL; MIC (pre-incubated AMP) (E.coli K-12 BW25113; [13]): 5 µg/mL; MIC (pre-incubated AMP) (E.coli K-12 BW25113; [14]): 5 µg/mL; MIC (pre-incubated AMP) (E.coli K-12 BW25113; [15]): 5 µg/mL; MIC (E. coli ATCC 25922): 6 µg/mL; MIC (S. enterica LT2): 8 µg/mL
5 | COc1cc(Cc2cnc(N)nc2N)cc(OC)c1OC [TRM, Trimethoprim] | 11 | – | – | – | – | – | – | – | – | 2 | 128 | 2 | 64 | 2 | 64 | increment in resistance level by the pooled ASKA library [3]: 32 fold; MIC (E. coli K-12 BW25113; Escherichia coli, BW25113, 24 h): 5.2 µg/mL

Reference: paper PMC6778101 (Nature Communications, 2019)
